pIC50: −log10 of the molar value.

The target in the assay is Muscarinic acetylcholine receptor M5 (Rattus norvegicus) (UniProt P08911). The assay is described as follows: rat M5 receptor negative allosteric modulators, selectivity assay for human M5 NAM project, cell-based, rat ortholog, CHO-K1, Fluo-4 calcium flux (AID 743104). The conditions noted are these: CHO-K1 rat M5, Fluo-4 calcium flux, ACh EC20. (In general: Calcium assays in cells follow changes in intracellular calcium, usually with a dye or a luminescent sensor.)
Chain of Muscarinic acetylcholine receptor M5 (Rattus norvegicus) (P08911 whole entry, looked up): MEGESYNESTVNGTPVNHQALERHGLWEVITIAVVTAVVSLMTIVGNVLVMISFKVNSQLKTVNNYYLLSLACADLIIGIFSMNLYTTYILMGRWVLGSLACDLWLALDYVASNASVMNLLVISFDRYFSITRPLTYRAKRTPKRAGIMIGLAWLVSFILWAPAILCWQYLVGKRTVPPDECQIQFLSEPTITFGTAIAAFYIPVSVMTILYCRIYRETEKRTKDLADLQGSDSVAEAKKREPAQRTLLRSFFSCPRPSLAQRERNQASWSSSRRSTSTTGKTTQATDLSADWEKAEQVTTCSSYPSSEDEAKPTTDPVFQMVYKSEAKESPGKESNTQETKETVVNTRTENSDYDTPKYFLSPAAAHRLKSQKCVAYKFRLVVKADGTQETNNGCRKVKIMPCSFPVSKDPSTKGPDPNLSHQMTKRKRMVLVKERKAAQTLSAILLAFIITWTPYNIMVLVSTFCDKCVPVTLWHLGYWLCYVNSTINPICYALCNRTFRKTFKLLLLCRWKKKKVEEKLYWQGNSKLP
For `O=C(c1cc(F)cc(F)c1)N1CCN2C(=O)c3ccccc3C12c1ccc(Cl)cc1` (stereo not drawn), the pIC50 was 5.45.

Consider `O=C(c1ccc(F)c(F)c1)N1CCN2C(=O)c3ccccc3C12c1ccccc1` (stereo not drawn), for which the pIC50 is 5.70.

For `O=C(c1ccc(F)cc1)N1CCN2C(=O)c3ccccc3C12c1ccccc1` (stereo not drawn), the pIC50 was 5.21.

The term pIC50 denotes the IC50 on a negative log10 scale, so that one unit is a factor of ten.

Source of the values: PubChem BioAssay AID743104 (Vanderbilt Specialized Chemistry Center, 2013).
